Counter-ions that a name gives are not always drawn.
How the values were obtained:
[1] = tested on: CCR2 expressing cells (CD11b+Ly6c+Hi) in peripheral blood; experiment: In vivo depletion assay, flow cytometry of peripheral blood (Example 201); design: species or system human CCR2 knock-in mice (C57 background); conditions: hCCR2 knock-in mice, IV 0.1 mpk compound + 10 mpk anti-cotinine antibody (SEQ ID NO: 13/14), peripheral blood at 48 hr
Protocol: Stock solution preparation. Stock solutions of compounds of Formula (I) were prepared at 20 mg/mL and 100 mg/mL in […] for PK/PD and dose tolerability studies respectively. Stock solutions were stored at […] until further usage. on the day of experiment, the stock Solution of the compound of Formula (I) was removed from storage at […] and thawed at room temperature. Anti-cotinine antibody having a heavy chain sequence of SEC ID NO: 13 and a light chain sequence of SEQ ID NO: 14 (rabbit variable region sequence with mouse IgG2a Fc domain), if required was removed from storage at −80° C. and thawed at room temperature. Antibody vials were immediately transferred into wet ice after thawing. Compounds of Formula (I) were further diluted in DMSO as per experimental requirements.
The formulation composition was Saline: DMSI: PBS.
Saline was added based on the quantity required and then stock solution of the compound of Formula (I) prepared in DMSO, followed by addition of antibody in PBS. Formulations were incubated at room temperature for 30 minutes before administration to the mouse. DMSO was used at 1 to % (v/v) in the final formulation.
After bleeding, each mouse was sacrificed by cervical dislocation. […] Flow Cytometry Analysis:
CCR2 depletion in peripheral blood was determined by flow cytometry. Briefly, peripheral blood was collected from all animals at the end of study termination and processed. Blood samples were lysed using 1×RBC Lysis buffer and the resulting cell pellet was washed twice in FACS buffer (HBSS containing 5% FBS). Cells were subjected to Fc blocking using mouse Fc block from Biolegend (Trustain, anti-mouse CD16/32, Cat: 101319) to block non-specific binding followed by surface staining for immune markers (CD45, CD3, CD11 b, Ly6C, human CCR2). Surface staining was done for 30 minutes in ice and cells were washed twice to remove unbound antibodies. Cells were stained with 7AAD to determine viability and acquired on BD FACSVerse flow cytometer. Appropriate FMO controls and single-color controls were included in the experiment for gating and compensation respectively.
Percent depletion of CD11 b+Ly6c+Hi cells and CCR2 expression for the different treatment groups was determined.

[2] = tested on: endogenous target monocytes in human PBMC; experiment: PBMC ex vivo monocyte depletion flow cytometry assay (Example 200); assay type: cell-based; conditions: with anti-cotinine antibody (SEQ ID NO: 11/12), 18-24 hours, EC50 in molar, read-out: Ex Vivo Depletion Assay pEC50 (converted)
Procedure, shortened: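 Monocyte depletion is reported as pEC50, averaged or given individually across runs, and read by flow cytometry staining CD45, CD14 and CD4 with a viability dye. Compounds, diluted four-fold over 11 points from 1 mM DMSO stocks, were combined with 30 μg/mL Fc-enhanced anti-cotinine antibody and human PBMC, then incubated 18-24 h at 37° C.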

Structure (SMILES) | % Depletion of CCR2 expressing cells [1] | EC50 [2]
CC(C)(C)N[C@@H]1CC[C@H](N2CC[C@H](Nc3ncnc4ccc(C(F)(F)F)cc34)C2=O)[C@H](NC(=O)[C@H]2CC[C@H](NC(=O)CCCO[C@H]3CC[C@H](OCCNC(=O)[C@H]4CC(=O)N(C5CCC5)[C@@H]4c4cccnc4)CC3)CC2)C1 [Example 15, (2S,3S)-N-(2-(((1R,4S)-4-(4-(((1R,4R)-4-(((1R,2S,5R)-5-(tert-butylamino)-2-((S)-2-oxo-3-((6-(trifluoromethyl)quinazolin-4-yl)amino)pyrrolidin-1-yl)cyclohexyl)carbamoyl)cyclohexyl)amino)-4-oxobutoxy)cyclohexyl)oxy)ethyl)-1-cyclobutyl-5-oxo-2-(pyridin-3-yl)pyrrolidine-3-carboxamide] | 92.6% | –
CC(C)N(C)[C@@H]1CC[C@H](N2CC[C@H](Nc3ncnc4ccc(C(F)(F)F)cc34)C2=O)[C@H](NC(=O)C[C@H]2CC[C@H](NC(=O)CCOCCOCCOCCNC(=O)[C@H]3CC(=O)N(C)[C@@H]3c3cccnc3)CC2)C1 [Example 33, (2S,3S)-N-(2-(2-(2-(3-(((1R,4r)-4-(2-(((1R,2S,5R)-5-(Isopropyl(methyl)amino)-2-((S)-2-oxo-3-((6-(trifluoromethyl)quinazolin-4-yl)amino)pyrrolidin-1-yl)cyclohexyl)amino)-2-oxoethyl)cyclohexyl)amino)-3-oxopropoxy)ethoxy)ethoxy)ethyl)-1-methyl-5-oxo-2-(pyridin-3-yl)pyrrolidine-3-carboxamide] | 89% | 0.316 nM
CN1C(=O)C[C@H](C(=O)NCCOCCOCCOCCOCCOCCOCCOCCOCCC(=O)N[C@@H]2C[C@H](NC(C)(C)C)CC[C@@H]2N2CC[C@H](Nc3ncnc4ccc(C(F)(F)F)cc34)C2=O)[C@H]1c1cccnc1 [Example 36, (2S,3S)-N-(27-(((1R,2S,5R)-5-(tert-Butylamino)-2-((S)-2-oxo-3-((6-(trifluoromethyl)quinazolin-4-yl)amino)pyrrolidin-1-yl)cyclohexyl)amino)-27-oxo-3,6,9,12,15,18,21,24-octaoxaheptacosyl)-1-methyl-5-oxo-2-(pyridin-3-yl)pyrrolidine-3-carboxamide] | 83.33% | –
CN1C(=O)C[C@H](C(=O)NCCC(=O)NCCOCCOCCC(=O)N[C@H]2CC[C@@H](C(=O)N[C@@H]3C[C@H](NC(C)(C)C)CC[C@@H]3N3CC[C@H](Nc4ncnc5ccc(C(F)(F)F)cc45)C3=O)CC2)[C@H]1c1cccnc1 [Example 51, (2S,3S)-N-(3-((2-(2-(3-(((1S,4s)-4-(((1R,2S,5R)-5-(tert-Butylamino)-2-((S)-2-oxo-3-((6-(trifluoromethyl)quinazolin-4-yl)amino)pyrrolidin-1-yl)cyclohexyl)carbamoyl)cyclohexyl)amino)-3-oxopropoxy)ethoxy)ethyl)amino)-3-oxopropyl)-1-methyl-5-oxo-2-(pyridin-3-yl)pyrrolidine-3-carboxamide] | 97.32% | 0.631 nM
CC(C)N(C)[C@@H]1CC[C@H](N2CC[C@H](Nc3ncnc4ccc(C(F)(F)F)cc34)C2=O)[C@H](NC(=O)[C@H]2CC[C@@H](NC(=O)CNC(=O)COCCOCCNC(=O)[C@H]3CC(=O)N(C)[C@@H]3c3cccnc3)CC2)C1 [Example 81, (2S,3S)-N-(2-(2-(2-((2-(((1S,4s)-4-(((1R,2S,5R)-5-(Isopropyl(methyl)amino)-2-((S)-2-oxo-3-((6-(trifluoromethyl)quinazolin-4-yl)amino)pyrrolidin-1-yl)cyclohexyl)carbamoyl)cyclohexyl)amino)-2-oxoethyl)amino)-2-oxoethoxy)ethoxy)ethyl)-1-methyl-5-oxo-2-(pyridin-3-yl)pyrrolidine-3-carboxamide] | 94% | –
CC(C)N(C)[C@@H]1CC[C@H](N2CC[C@H](Nc3ncnc4ccc(C(F)(F)F)cc34)C2=O)[C@H](NC(=O)[C@H]2CC[C@@H](NC(=O)COCCOCCNC(=O)CCNC(=O)[C@H]3CC(=O)N(C)[C@@H]3c3cccnc3)CC2)C1 [Example 82, (2S,3S)-N-(3-((2-(2-(2-(((1S,4s)-4-(((1R,2S,5R)-5-(Isopropyl(methyl)amino)-2-((S)-2-oxo-3-((6-(trifluoromethyl)quinazolin-4-yl)amino)pyrrolidin-1-yl)cyclohexyl)carbamoyl)cyclohexyl)amino)-2-oxoethoxy)ethoxy)ethyl)amino)-3-oxopropyl)-1-methyl-5-oxo-2-(pyridin-3-yl)pyrrolidine-3-carboxamide] | 94% | 0.501 nM
CC(C)N(C)[C@@H]1CC[C@H](N2CC[C@H](Nc3ncnc4ccc(C(F)(F)F)cc34)C2=O)[C@H](NC(=O)CCc2ccc(C3CCN(C(=O)CCCCCNC(=O)[C@H]4CC(=O)N(C)[C@@H]4c4cccnc4)CC3)cc2)C1 [Example 86, (2S,3S)-N-(6-(4-(4-(3-(((1R,2S,5R)-5-(Isopropyl(methyl)amino)-2-((S)-2-oxo-3-((6-(trifluoromethyl)quinazolin-4-yl)amino)pyrrolidin-1-yl)cyclohexyl)amino)-3-oxopropyl)phenyl)piperidin-1-yl)-6-oxohexyl)-1-methyl-5-oxo-2-(pyridin-3-yl)pyrrolidine-3-carboxamide] | 25.67% | 0.158 nM
CC(C)N(C)[C@@H]1CC[C@H](N2CC[C@H](Nc3ncnc4ccc(C(F)(F)F)cc34)C2=O)[C@H](NC(=O)C2CCN(C3CCN(CCOCCOCCNC(=O)[C@H]4CC(=O)N(C)[C@@H]4c4cccnc4)CC3)CC2)C1 [Example 90, N-((1R,2S,5R)-5-(Isopropyl(methyl)amino)-2-((S)-2-oxo-3-((6-(trifluoromethyl)quinazolin-4-yl)amino)pyrrolidin-1-yl)cyclohexyl)-1′-(2-(2-(2-((2S,3S)-1-methyl-5-oxo-2-(pyridin-3-yl)pyrrolidine-3-carboxamido)ethoxy)ethoxy)ethyl)-[1,4′-bipiperidine]-4-carboxamide] | 87.57% | 1.58 nM
CN1C(=O)C[C@H](C(=O)NCCOCC(=O)NCCOCC(=O)N[C@H]2CC[C@@H](C(=O)N[C@@H]3C[C@H](NC(C)(C)C)CC[C@@H]3N3CC[C@H](Nc4ncnc5ccc(C(F)(F)F)cc45)C3=O)CC2)[C@H]1c1cccnc1 [Example 100, (2S,3S)-N-(2-(2-((2-(2-(((1S,4s)-4-(((1R,2S,5R)-5-(tert-Butylamino)-2-((S)-2-oxo-3-((6-(trifluoromethyl)quinazolin-4-yl)amino)pyrrolidin-1-yl)cyclohexyl)carbamoyl)cyclohexyl)amino)-2-oxoethoxy)ethyl)amino)-2-oxoethoxy)ethyl)-1-methyl-5-oxo-2-(pyridin-3-yl)pyrrolidine-3-carboxamide] | 74% | 1.26 nM
CC(C)N(C)[C@@H]1CC[C@H](N2CC[C@H](Nc3ncnc4ccc(C(F)(F)F)cc34)C2=O)[C@H](NC(=O)CNC(=O)[C@H]2CC[C@@H](NC(=O)COCCOCCNC(=O)[C@H]3CC(=O)N(C)[C@@H]3c3cccnc3)CC2)C1 [Example 136, (2S,3S)-N-(2-(2-(2-(((1S,4R)-4-((2-(((1R,2S,5R)-5-(Isopropyl(methyl)amino)-2-((S)-2-oxo-3-((6-(trifluoromethyl)quinazolin-4-yl)amino)pyrrolidin-1-yl)cyclohexyl)amino)-2-oxoethyl)carbamoyl)cyclohexyl)amino)-2-oxoethoxy)ethoxy)ethyl)-1-methyl-5-oxo-2-(pyridin-3-yl)pyrrolidine-3-carboxamide] | 88% | 10 nM
CC(C)N(C)[C@@H]1CC[C@H](N2CC[C@H](Nc3ncnc4ccc(C(F)(F)F)cc34)C2=O)[C@H](NC(=O)C2CCN(CCCCCCCCNC(=O)[C@H]3CC(=O)N(C)[C@@H]3c3cccnc3)CC2)C1 [Example 144, N-((1R,2S,5R)-5-(Isopropyl(methyl)amino)-2-((S)-2-oxo-3-((6-(trifluoromethyl)quinazolin-4-yl)amino)pyrrolidin-1-yl)cyclohexyl)-1-(8-((2S,3S)-1-methyl-5-oxo-2-(pyridin-3-yl)pyrrolidine-3-carboxamido)octyl)piperidine-4-carboxamide, 3Formic acid salt] | 85.67% | 0.501 nM

— patent US12521393B2, “Cytotoxicity targeting chimeras for CCR2-expressing cells” (GLAXOSMITHKLINE INTELLECTUAL PROPERTY DEVELOPMENT LIMITED, priority 2021, dated 2026)
